Residues, ends and D or L forms follow the SMILES beside them. *: point of attachment. Boc = CC(C)(C)OC(=O)*
conditions: not given

With CC(C)Cc1cc([N+](=O)[O-])cc(C(C)C)c1O as the compound, how does the logP read?
The logP was 4.19.

Which logP does the source give for OC1CCCCCCCCCCC1 here?
Its logP is 3.75.

For Nc1cc([N+](=O)[O-])cc([N+](=O)[O-])c1, which logP is on record?
Its logP is 1.89.

Which logP does the source give for CCOC(=O)CC(=O)C=Cc1ccc2c(c1)OCO2 here?
The logP was 2.35.

With c1ccc(-c2cc3ccccc3[nH]2)nc1 as the compound, how does the logP read?
The logP was 3.33.

For Cc1nc(N(C)C)nc(OC(=O)N(C)C)c1C, which logP is on record?
Its logP is 1.7.

With CC1(C)CNC(=NN=C(C=Cc2ccc(C(F)(F)F)cc2)C=Cc2ccc(C(F)(F)F)cc2)NC1 as the compound, how does the logP read?
Its logP is 2.31.

For O=[N+]([O-])Nc1ccccn1, which logP is on record?
The logP was -1.02.

With CC(C)c1ccc(O)cc1 as the compound, how does the logP read?
Its logP is 2.9.

For CCCCOCN(C(=O)CCl)c1c(CC)cccc1CC, which logP is on record?
Its logP is 4.5.

With CC(C)(C)NCC(O)COCCCc1ccccc1 (stereo not given) as the compound, how does the logP read?
Its logP is 2.58.

Which logP does the source give for Cc1ccc2c(c1)nc(N)n2C here?
Its logP is 1.47.

Which logP does the source give for CCOC(=O)C(Cl)(Cl)Cl here?
Its logP is 2.39.

For CCCCOC(NC(=O)c1ccccc1O)C(Cl)(Cl)Cl (stereo not given), which logP is on record?
The logP was 4.45.

For CCS(=O)(=O)c1c([N+](=O)[O-])ncn1C, which logP is on record?
The logP was -0.37.

For Clc1c(Cl)c(Cl)c2ccccc2c1Cl, which logP is on record?
Its logP is 5.75.

With C/C=C\C=C\C as the compound, how does the logP read?
Its logP is 2.8.

For CC(C)c1ccc(C(O)C(CO)NC(=O)C(Cl)Cl)cc1 (stereo not given), which logP is on record?
Its logP is 2.24.

For FC(F)(F)c1ccccc1Cl, which logP is on record?
The logP was 3.53.

For Fc1cccnc1, which logP is on record?
Its logP is 0.77.

With Oc1ccc(Sc2ccc(O)cc2)cc1 as the compound, how does the logP read?
Its logP is 3.34.

For CCOc1ccccc1OCC, which logP is on record?
The logP was 2.42.

With O=C(Nc1ccccc1)Nc1ccccc1 as the compound, how does the logP read?
The logP was 3.

For S=C(N/N=C/c1ccco1)Nc1ccccc1, which logP is on record?
The logP was 3.13.

Which logP does the source give for CCC(C)c1cc([N+](=O)[O-])cc(C(C)CC)c1O (stereo not given) here?
Its logP is 4.8.

Which logP does the source give for N#Cc1sc2c(=O)c3ccccc3c(=O)c=2sc1C#N here?
The logP was 2.84.

With CC1COC(=O)O1 (stereo not given) as the compound, how does the logP read?
Its logP is -0.41.

Which logP does the source give for CS(=O)(=O)N1C(=O)c2ccc(N)cc2C1=O here?
The logP was 0.8.

For C=CC1(C)OC(=O)N(c2cc(Cl)cc(Cl)c2)C1=O (stereo not given), which logP is on record?
The logP was 3.1.

With O=[N+]([O-])c1cccc(SSc2cccc([N+](=O)[O-])c2)c1 as the compound, how does the logP read?
The logP was 4.06.

With O=[N+]([O-])c1ccc(/C=C/c2ncc[nH]2)o1 as the compound, how does the logP read?
Its logP is 1.32.

Which logP does the source give for C1=C(c2ccccc2)CCCC1 here?
Its logP is 4.53.

For NC(=O)Cc1cccs1, which logP is on record?
Its logP is 0.33.

For Cn1cccc1/C=N/NC(=S)Nc1ccccc1, which logP is on record?
The logP was 3.64.

Which logP does the source give for COC(=O)CCCCC(=O)OC here?
Its logP is 1.03.

For c1ccc(Cn2cccn2)cc1, which logP is on record?
The logP was 1.78.

For O=C1CC(Sc2ccncc2)N1 (stereo not given), which logP is on record?
Its logP is 0.61.

With CCc1cccc(CC)c1NC(=O)OC as the compound, how does the logP read?
The logP was 1.99.

For CCC(C)Cl (stereo not given), which logP is on record?
The logP was 2.33.

For Cn1c(N)nc2ccccc21, which logP is on record?
Its logP is 0.95.

With CCn1cc(C)c(=O)[nH]c1=O as the compound, how does the logP read?
The logP was -0.15.

Which logP does the source give for O=Nc1ccc(NO)cc1 here?
The logP was 1.49.

For CCOC(=O)C(F)F, which logP is on record?
Its logP is 0.87.

With CCC(C)C(C)(C)C(N)=O (stereo not given) as the compound, how does the logP read?
The logP was 1.81.

Which logP does the source give for O=[N+]([O-])c1cc2[nH]c(C(F)(F)F)nc2cc1Cl here?
The logP was 3.21.

Which logP does the source give for COc1ccc2c(c1)nc(N)n2C here?
Its logP is 0.87.

Which logP does the source give for CNC1=C(N2CC2)C(=O)C(NC)=C(N2CC2)C1=O here?
Its logP is 0.13.

With Cn1c(=O)sc2ccccc21 as the compound, how does the logP read?
Its logP is 1.98.

For CC1CN1C1=C(F)C(=O)C(N2CC2C)=C(F)C1=O (stereo not given), which logP is on record?
The logP was 1.61.

With CC(=O)OC(C)c1ccccc1 (stereo not given) as the compound, how does the logP read?
Its logP is 2.3.

Which logP does the source give for COC(=O)C(=O)OC here?
Its logP is -0.17.

For c1ccc2c(c1)CCc1ccccc1-2, which logP is on record?
The logP was 4.52.

For Clc1cc(Cl)c2cc(Cl)cc(Cl)c2c1, which logP is on record?
The logP was 6.19.

Which logP does the source give for CCOc1ccc(C(C)(C)COCc2cccc(Oc3ccccc3)c2)cc1 here?
Its logP is 7.05.

For O=C1C=C(N2CC2)C(=O)C=C1N1CC1, which logP is on record?
The logP was 0.18.

Which logP does the source give for CC(C(=O)O)c1ccc(N2C(=O)C3C4C=CCC3(C4)C2=O)cc1 (stereo not given) here?
Its logP is 2.31.

With O=C(OCCCc1cnc[nH]1)c1ccccc1 as the compound, how does the logP read?
Its logP is 2.64.

With CN(C)c1ccc(C#N)cc1 as the compound, how does the logP read?
The logP was 2.2.

Which logP does the source give for CN1CCCC1 here?
Its logP is 0.92.

With CC(=O)CCC(C)=O as the compound, how does the logP read?
Its logP is -0.27.

With CC(=O)Oc1ccc(N)cc1 as the compound, how does the logP read?
The logP was 0.45.

With CC(O)CNC(=O)C(F)(F)Cn1cnc([N+](=O)[O-])n1 (stereo not given) as the compound, how does the logP read?
The logP was -0.48.

With CCc1ccncc1 as the compound, how does the logP read?
Its logP is 1.65.

With COC(=O)CCCCCC(=O)OC as the compound, how does the logP read?
Its logP is 1.38.

For C=CCOC1=NS(=O)(=O)c2ccccc21, which logP is on record?
Its logP is 1.4.

With O=C1CC(OC(=O)c2ccccc2)N1 (stereo not given) as the compound, how does the logP read?
The logP was 1.37.

Which logP does the source give for CC(C)(C)C(=O)C(C)(C)C here?
The logP was 3.

With CCOC(=O)N(C)C as the compound, how does the logP read?
Its logP is 0.89.

For CC(C)(C)Br, which logP is on record?
The logP was 1.15.

For Cc1ccccc1COC1CC2(C(C)C)CCC1(C)O2 (stereo not given), which logP is on record?
Its logP is 3.83.

With CNc1c(Cl)cccc1Cl as the compound, how does the logP read?
Its logP is 2.91.

Which logP does the source give for CCCCn1cc(C)c(=O)[nH]c1=O here?
Its logP is 0.91.

For Clc1cc(Cl)nc(-c2ccccc2)n1, which logP is on record?
Its logP is 4.17.

For c1cnc2nc[nH]c2c1, which logP is on record?
Its logP is 0.3.

With Cc1ccnc(=O)[nH]1 as the compound, how does the logP read?
The logP was -1.45.

With COc1ccc2[nH]c(N)nc2c1 as the compound, how does the logP read?
The logP was 0.57.

For CC(C)c1ccccc1N, which logP is on record?
The logP was 2.12.

Which logP does the source give for c1ccc2c(c1)CCCC2 here?
Its logP is 3.49.

Which logP does the source give for COc1ccc([N+](=O)[O-])cc1N here?
The logP was 1.47.

same assay, conditions: pH 1.0

With CC(C)(C)OC(=O)N[C@@H](Cc1ccccc1)C(=O)N[C@@H](Cc1ccc(O)cc1)C(=O)O (Boc-Phe-Tyr-OH) as the compound, how does the logD read?
The logD was 2.79.

For CCC(C)C#N (stereo not given), which logD is on record?
The logD was 1.1.

With CCOc1ccc(C(=O)O)cc1OCC as the compound, how does the logD read?
The logD was 2.37.

With Cn1nnnc1SCC1=C(C(=O)O)N2C(=O)[C@@H](NC(=O)[C@H](O)c3ccccc3)[C@H]2SC1 as the compound, how does the logD read?
The logD was 0.25.

same assay, conditions: pH 2.1

With CCCCCCOc1ccc(S(N)(=O)=O)cc1 as the compound, how does the logD read?
The logD was 2.93.

same assay, conditions: pH 4.0

For CC(C)=NNc1c([N+](=O)[O-])cc(C(F)(F)F)cc1[N+](=O)[O-], which logD is on record?
The logD was 3.2.

Which logD does the source give for CC(=NNc1c([N+](=O)[O-])cc(C(F)(F)F)cc1[N+](=O)[O-])C(F)(F)F here?
The logD was 3.

same assay, conditions: pH 6.3

For CC(C)N(C)/N=N/c1ccc(C(N)=O)cc1, which logD is on record?
The logD was 2.02.

same assay, conditions: pH 7.0

For COc1c2c(cc3c1-c1ccc(OC)c(=O)cc1C(NC(C)=O)CC3)OCO2 (stereo not given), which logD is on record?
Its logD is 1.6.

Which logD does the source give for S=c1nc(-c2ccccc2)[nH][nH]1 here?
The logD was 1.84.

Which logD does the source give for COC(=O)c1ccc(NC(C)=O)cc1 here?
The logD was 1.64.

same assay, conditions: pH 7.4

For CNC(=O)c1cccc2cccnc12, which logD is on record?
The logD was 1.87.

For CC(C)c1ccc([N+](=O)[O-])cc1, which logD is on record?
Its logD is 3.45.

Which logD does the source give for Cc1[nH]ccc2c1[nH]c1cc(=O)ccc12 here?
The logD was 2.18.

With Cn1c([N+](=O)[O-])cnc1C=NNC(N)=S as the compound, how does the logD read?
The logD was 0.65.

Which logD does the source give for Cc1cc(C)c2c(c1)C(c1ccccc1)=NCC(=O)N2 here?
The logD was 2.94.

With O=C(/C=C/c1ccc([N+](=O)[O-])o1)N/N=C/c1ccc([N+](=O)[O-])o1 as the compound, how does the logD read?
Its logD is 2.22.

Which logD does the source give for CNc1nc2c3cccnc3ccc2n1C here?
The logD was 1.82.

For CCc1ncc([N+](=O)[O-])n1C, which logD is on record?
Its logD is 0.62.

For N#Cc1cccc2cccnc12, which logD is on record?
Its logD is 1.39.

Which logD does the source give for Fc1cccc2cccnc12 here?
Its logD is 2.19.

Which logD does the source give for Cn1cc2ccc([N+](=O)[O-])cc2n1 here?
Its logD is 1.76.

With O=C1CN=C(c2ccccc2F)c2cc(Br)ccc2N1 as the compound, how does the logD read?
Its logD is 2.98.

Which logD does the source give for Cc1nc([N+](=O)[O-])cn1COCCS(C)(=O)=O here?
Its logD is -0.84.

For COC(=O)Cn1c([N+](=O)[O-])cnc1C, which logD is on record?
Its logD is 0.17.

With CN(C)c1ccc2c(c1)C(c1ccccc1Cl)=NCC(=O)N2C as the compound, how does the logD read?
Its logD is 2.72.

same assay, conditions: pH 9.0

With NC(=O)c1nc[nH]c1N as the compound, how does the logD read?
The logD was -1.1.

same assay, conditions: pH 10.6

With C=CCN1CCc2nc(N)sc2CC1 as the compound, how does the logD read?
Its logD is 1.48.

same assay, conditions: pH 13.0

Which logD does the source give for CNCCNC here?
Its logD is -0.62.

With N=C(N)c1cccc([N+](=O)[O-])c1 as the compound, how does the logD read?
The logD was 0.72.

With CN(C)CCNCCN as the compound, how does the logD read?
Its logD is -0.92.

For Cc1ccc(Cc2cnc(N)nc2N)c(C)c1N, which logD is on record?
The logD was 1.12.

Which logD does the source give for COc1ccc(Oc2cnc(N)nc2N)c(OC)c1OC here?
Its logD is 0.9.

With CC(C)NC(C)(C)C as the compound, how does the logD read?
Its logD is 1.56.

With COc1c(C(C)C)cc(Cc2cnc(N)nc2N)cc1C(C)C as the compound, how does the logD read?
The logD was 3.47.

For CCOC(CC)(OCC)OCC, which logD is on record?
The logD was 1.97.
